How the values were obtained:
[1] = molecular target: AP2-associated protein kinase 1 (Homo sapiens) (UniProt Q2M2I8); conditions: Compound concentration 1000.0 nM
[2] = tested on: Tyrosine-protein kinase ABL1 (Homo sapiens), P00519 [F317L]; conditions: Compound concentration 1000.0 nM
[3] = tested on: Tyrosine-protein kinase ABL1 (Homo sapiens), P00519 [H396P]; conditions: Compound concentration 1000.0 nM
[4] = molecular target: Bone morphogenetic protein receptor type-1A (Homo sapiens) (UniProt P36894); conditions: Compound concentration 1000.0 nM
Bone morphogenetic protein receptor type-1A (Homo sapiens), sequence (P36894 whole entry): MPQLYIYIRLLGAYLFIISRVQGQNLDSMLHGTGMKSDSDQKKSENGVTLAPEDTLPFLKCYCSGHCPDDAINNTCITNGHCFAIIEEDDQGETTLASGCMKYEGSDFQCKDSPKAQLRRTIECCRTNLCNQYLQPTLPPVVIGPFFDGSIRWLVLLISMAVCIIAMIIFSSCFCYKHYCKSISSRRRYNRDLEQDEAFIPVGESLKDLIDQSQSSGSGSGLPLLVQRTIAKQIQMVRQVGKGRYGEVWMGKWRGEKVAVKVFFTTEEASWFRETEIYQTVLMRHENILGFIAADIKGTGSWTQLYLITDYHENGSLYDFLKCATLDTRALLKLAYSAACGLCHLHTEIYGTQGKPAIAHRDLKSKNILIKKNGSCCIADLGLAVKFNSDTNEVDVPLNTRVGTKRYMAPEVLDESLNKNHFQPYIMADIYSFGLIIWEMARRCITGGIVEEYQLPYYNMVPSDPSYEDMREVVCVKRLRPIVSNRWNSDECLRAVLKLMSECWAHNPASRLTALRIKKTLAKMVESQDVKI

[5] = molecular target: Serine/threonine-protein kinase BRSK1 (Homo sapiens) (UniProt Q8TDC3); conditions: Compound concentration 1000.0 nM
[6] = molecular target: Calcium/calmodulin-dependent protein kinase type II subunit alpha (Homo sapiens) (UniProt Q9UQM7); conditions: Compound concentration 1000.0 nM
[7] = molecular target: Dual specificity protein kinase CLK3 (Homo sapiens) (UniProt P49761); conditions: Compound concentration 1000.0 nM
[8] = molecular target: Casein kinase I isoform alpha (Homo sapiens) (UniProt P48729); conditions: Compound concentration 1000.0 nM
Casein kinase I isoform alpha (Homo sapiens), sequence (P48729 2-337 limits assumed): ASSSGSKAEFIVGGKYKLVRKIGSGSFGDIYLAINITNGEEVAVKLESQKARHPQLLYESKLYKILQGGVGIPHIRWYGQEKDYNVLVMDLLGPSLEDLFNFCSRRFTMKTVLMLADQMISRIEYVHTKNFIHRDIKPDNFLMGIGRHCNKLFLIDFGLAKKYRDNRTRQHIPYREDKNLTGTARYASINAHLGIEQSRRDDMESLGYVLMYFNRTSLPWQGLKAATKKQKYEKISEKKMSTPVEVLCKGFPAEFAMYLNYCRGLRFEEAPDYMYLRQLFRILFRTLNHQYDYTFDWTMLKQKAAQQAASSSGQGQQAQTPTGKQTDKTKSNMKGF

[9] = molecular target: Death-associated protein kinase 2 (Homo sapiens) (UniProt Q9UIK4); conditions: Compound concentration 1000.0 nM
[10] = molecular target: Serine/threonine-protein kinase MRCK gamma (Homo sapiens) (UniProt Q6DT37); conditions: Compound concentration 1000.0 nM
[11] = molecular target: Serine/threonine-protein kinase 17A (Homo sapiens) (UniProt Q9UEE5); conditions: Compound concentration 1000.0 nM
[12] = tested on: Epidermal growth factor receptor (Homo sapiens), P00533 [T790M]; conditions: Compound concentration 1000.0 nM
[13] = molecular target: Ephrin type-A receptor 7 (Homo sapiens) (UniProt Q15375); conditions: Compound concentration 1000.0 nM
[14] = tested on: Receptor-type tyrosine-protein kinase FLT3 (Homo sapiens), P36888 [R834Q]; conditions: Compound concentration 1000.0 nM
[15] = molecular target: Vascular endothelial growth factor receptor 3 (Homo sapiens) (UniProt P35916); conditions: Compound concentration 1000.0 nM
[16] = molecular target: Rhodopsin kinase GRK7 (Homo sapiens) (UniProt Q8WTQ7); conditions: Compound concentration 1000.0 nM
[17] = molecular target: Homeodomain-interacting protein kinase 3 (Homo sapiens) (UniProt Q9H422); conditions: Compound concentration 1000.0 nM
[18] = molecular target: Interleukin-1 receptor-associated kinase 4 (Homo sapiens) (UniProt Q9NWZ3); conditions: Compound concentration 1000.0 nM
[19] = molecular target: Tyrosine-protein kinase JAK1 (Homo sapiens) (UniProt P23458); conditions: Compound concentration 1000.0 nM
Tyrosine-protein kinase JAK1 (Homo sapiens), sequence (P23458 whole entry): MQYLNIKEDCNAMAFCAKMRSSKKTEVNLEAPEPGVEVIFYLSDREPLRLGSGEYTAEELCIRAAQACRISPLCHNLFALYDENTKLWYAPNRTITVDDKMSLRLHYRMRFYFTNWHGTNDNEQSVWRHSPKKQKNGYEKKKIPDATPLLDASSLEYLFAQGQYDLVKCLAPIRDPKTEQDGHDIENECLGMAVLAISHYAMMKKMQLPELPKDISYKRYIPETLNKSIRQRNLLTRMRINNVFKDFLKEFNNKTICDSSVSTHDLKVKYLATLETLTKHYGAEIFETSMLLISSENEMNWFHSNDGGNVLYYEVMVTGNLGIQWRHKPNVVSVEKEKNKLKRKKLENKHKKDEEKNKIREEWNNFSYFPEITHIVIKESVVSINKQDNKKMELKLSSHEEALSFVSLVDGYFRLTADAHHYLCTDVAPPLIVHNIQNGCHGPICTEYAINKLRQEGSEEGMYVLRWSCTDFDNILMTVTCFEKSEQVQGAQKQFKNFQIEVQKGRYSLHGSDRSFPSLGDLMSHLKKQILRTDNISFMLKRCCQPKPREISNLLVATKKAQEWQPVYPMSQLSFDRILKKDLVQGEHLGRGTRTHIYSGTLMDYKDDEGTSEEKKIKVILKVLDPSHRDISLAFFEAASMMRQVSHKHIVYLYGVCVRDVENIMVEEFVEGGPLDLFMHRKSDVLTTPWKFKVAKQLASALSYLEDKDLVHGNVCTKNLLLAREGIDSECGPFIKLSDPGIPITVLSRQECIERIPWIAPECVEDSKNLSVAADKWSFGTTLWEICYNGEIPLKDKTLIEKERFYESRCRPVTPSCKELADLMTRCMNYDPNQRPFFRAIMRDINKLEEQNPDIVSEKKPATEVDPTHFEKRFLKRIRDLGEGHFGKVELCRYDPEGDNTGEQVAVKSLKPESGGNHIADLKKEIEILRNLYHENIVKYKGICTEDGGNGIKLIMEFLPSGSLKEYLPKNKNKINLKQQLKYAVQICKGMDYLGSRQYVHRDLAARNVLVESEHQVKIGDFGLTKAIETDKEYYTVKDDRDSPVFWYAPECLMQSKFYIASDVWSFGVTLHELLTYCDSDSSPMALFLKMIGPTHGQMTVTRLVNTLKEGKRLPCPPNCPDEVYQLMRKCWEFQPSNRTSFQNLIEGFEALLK

[20] = molecular target: Mitogen-activated protein kinase kinase kinase kinase 3 (Homo sapiens) (UniProt Q8IVH8); conditions: Compound concentration 1000.0 nM
[21] = molecular target: Mitogen-activated protein kinase kinase kinase kinase 4 (Homo sapiens) (UniProt O95819); conditions: Compound concentration 1000.0 nM
[22] = molecular target: Myosin light chain kinase family member 4 (Homo sapiens) (UniProt Q86YV6); conditions: Compound concentration 1000.0 nM
[23] = molecular target: Serine/threonine-protein kinase Nek1 (Homo sapiens) (UniProt Q96PY6); conditions: Compound concentration 1000.0 nM
[24] = molecular target: Serine/threonine-protein kinase Nek9 (Homo sapiens) (UniProt Q8TD19); conditions: Compound concentration 1000.0 nM
[25] = molecular target: Serine/threonine-protein kinase PAK 3 (Homo sapiens) (UniProt O75914); conditions: Compound concentration 1000.0 nM
[26] = molecular target: Serine/threonine-protein kinase PAK 6 (Homo sapiens) (UniProt Q9NQU5); conditions: Compound concentration 1000.0 nM
[27] = molecular target: Platelet-derived growth factor receptor alpha (Homo sapiens) (UniProt P16234); conditions: Compound concentration 1000.0 nM
[28] = molecular target: Phosphatidylinositol 4,5-bisphosphate 3-kinase catalytic subunit alpha isoform (Homo sapiens) (UniProt P42336); conditions: Compound concentration 1000.0 nM
[29] = tested on: Phosphatidylinositol 4,5-bisphosphate 3-kinase catalytic subunit alpha isoform (Homo sapiens), P42336 [Q546K]; conditions: Compound concentration 1000.0 nM
[30] = molecular target: Serine/threonine-protein kinase pim-2 (Homo sapiens) (UniProt Q9P1W9); conditions: Compound concentration 1000.0 nM
Serine/threonine-protein kinase pim-2 (Homo sapiens), sequence (Q9P1W9 whole entry, looked up): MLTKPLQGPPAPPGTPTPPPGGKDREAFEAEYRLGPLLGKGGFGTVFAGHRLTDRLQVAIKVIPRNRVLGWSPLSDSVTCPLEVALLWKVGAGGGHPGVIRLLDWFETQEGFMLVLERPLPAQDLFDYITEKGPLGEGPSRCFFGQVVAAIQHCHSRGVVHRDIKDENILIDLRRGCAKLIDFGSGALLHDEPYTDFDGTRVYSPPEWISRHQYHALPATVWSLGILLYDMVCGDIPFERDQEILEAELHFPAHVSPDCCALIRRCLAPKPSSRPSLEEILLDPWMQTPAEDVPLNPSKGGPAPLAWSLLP

[31] = molecular target: Membrane-associated tyrosine- and threonine-specific cdc2-inhibitory kinase (Homo sapiens) (UniProt Q99640); conditions: Compound concentration 1000.0 nM
Membrane-associated tyrosine- and threonine-specific cdc2-inhibitory kinase (Homo sapiens), sequence (Q99640 whole entry): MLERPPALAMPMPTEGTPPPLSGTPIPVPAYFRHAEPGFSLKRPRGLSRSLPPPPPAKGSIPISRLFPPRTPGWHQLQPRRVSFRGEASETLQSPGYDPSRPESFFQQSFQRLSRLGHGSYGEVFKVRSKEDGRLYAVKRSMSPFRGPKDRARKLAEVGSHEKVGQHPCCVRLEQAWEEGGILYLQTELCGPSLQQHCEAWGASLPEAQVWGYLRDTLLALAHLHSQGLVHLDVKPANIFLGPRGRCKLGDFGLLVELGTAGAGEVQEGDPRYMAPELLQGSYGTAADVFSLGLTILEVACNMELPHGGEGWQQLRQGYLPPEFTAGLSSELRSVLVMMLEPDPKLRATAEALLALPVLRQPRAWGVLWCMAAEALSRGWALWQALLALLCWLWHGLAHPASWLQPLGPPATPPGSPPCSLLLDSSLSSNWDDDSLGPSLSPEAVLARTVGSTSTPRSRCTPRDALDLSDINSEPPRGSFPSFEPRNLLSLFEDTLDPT

[32] = molecular target: Protein kinase C iota type (Homo sapiens) (UniProt P41743); conditions: Compound concentration 1000.0 nM
[33] = molecular target: Rho-associated protein kinase 1 (Homo sapiens) (UniProt Q13464); conditions: Compound concentration 1000.0 nM
[34] = molecular target: Proto-oncogene tyrosine-protein kinase ROS (Homo sapiens) (UniProt P08922); conditions: Compound concentration 1000.0 nM
[35] = molecular target: Ribosomal protein S6 kinase beta-1 (Homo sapiens) (UniProt P23443); conditions: Compound concentration 1000.0 nM
Ribosomal protein S6 kinase beta-1 (Homo sapiens), sequence (P23443 whole entry, looked up): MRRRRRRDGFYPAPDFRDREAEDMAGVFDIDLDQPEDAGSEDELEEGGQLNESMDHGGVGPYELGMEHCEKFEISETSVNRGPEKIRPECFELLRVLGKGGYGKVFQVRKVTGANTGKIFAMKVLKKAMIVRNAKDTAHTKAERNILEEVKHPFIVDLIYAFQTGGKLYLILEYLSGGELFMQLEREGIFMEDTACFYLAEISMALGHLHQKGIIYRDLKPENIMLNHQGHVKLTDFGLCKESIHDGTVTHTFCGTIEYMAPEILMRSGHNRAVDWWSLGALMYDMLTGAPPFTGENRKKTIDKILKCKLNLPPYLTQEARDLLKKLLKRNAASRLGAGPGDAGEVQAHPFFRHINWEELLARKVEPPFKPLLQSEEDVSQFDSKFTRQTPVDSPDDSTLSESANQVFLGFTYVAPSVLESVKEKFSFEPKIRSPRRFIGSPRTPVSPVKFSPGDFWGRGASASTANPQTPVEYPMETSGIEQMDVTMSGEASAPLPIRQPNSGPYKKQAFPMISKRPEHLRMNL

[36] = molecular target: Uncharacterized serine/threonine-protein kinase SBK3 (Homo sapiens) (UniProt P0C264); conditions: Compound concentration 1000.0 nM
Uncharacterized serine/threonine-protein kinase SBK3 (Homo sapiens), sequence (P0C264 whole entry): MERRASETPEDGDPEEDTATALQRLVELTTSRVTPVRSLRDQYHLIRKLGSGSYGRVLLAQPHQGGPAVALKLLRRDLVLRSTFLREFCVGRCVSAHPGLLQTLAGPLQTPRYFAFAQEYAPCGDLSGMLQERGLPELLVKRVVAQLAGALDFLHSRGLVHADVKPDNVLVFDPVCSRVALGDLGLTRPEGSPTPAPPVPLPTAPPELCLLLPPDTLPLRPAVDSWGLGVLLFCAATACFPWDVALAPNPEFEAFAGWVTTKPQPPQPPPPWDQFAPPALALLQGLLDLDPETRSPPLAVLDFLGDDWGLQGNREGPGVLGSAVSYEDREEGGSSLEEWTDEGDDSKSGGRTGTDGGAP

[37] = molecular target: Serine/threonine-protein kinase 36 (Homo sapiens) (UniProt Q9NRP7); conditions: Compound concentration 1000.0 nM
[38] = molecular target: Serine/threonine-protein kinase TBK1 (Homo sapiens) (UniProt Q9UHD2); conditions: Compound concentration 1000.0 nM
[39] = molecular target: TGF-beta receptor type-1 (Homo sapiens) (UniProt P36897); conditions: Compound concentration 1000.0 nM
[40] = molecular target: Wee1-like protein kinase (Homo sapiens) (UniProt P30291); conditions: Compound concentration 1000.0 nM
[41] = molecular target: Serine/threonine-protein kinase WNK1 (Homo sapiens) (UniProt Q9H4A3); conditions: Compound concentration 1000.0 nM
[42] = molecular target: Mitogen-activated protein kinase kinase kinase 19 (Homo sapiens) (UniProt Q56UN5); conditions: Compound concentration 1000.0 nM
Mitogen-activated protein kinase kinase kinase 19 (Homo sapiens), sequence (Q56UN5 whole entry): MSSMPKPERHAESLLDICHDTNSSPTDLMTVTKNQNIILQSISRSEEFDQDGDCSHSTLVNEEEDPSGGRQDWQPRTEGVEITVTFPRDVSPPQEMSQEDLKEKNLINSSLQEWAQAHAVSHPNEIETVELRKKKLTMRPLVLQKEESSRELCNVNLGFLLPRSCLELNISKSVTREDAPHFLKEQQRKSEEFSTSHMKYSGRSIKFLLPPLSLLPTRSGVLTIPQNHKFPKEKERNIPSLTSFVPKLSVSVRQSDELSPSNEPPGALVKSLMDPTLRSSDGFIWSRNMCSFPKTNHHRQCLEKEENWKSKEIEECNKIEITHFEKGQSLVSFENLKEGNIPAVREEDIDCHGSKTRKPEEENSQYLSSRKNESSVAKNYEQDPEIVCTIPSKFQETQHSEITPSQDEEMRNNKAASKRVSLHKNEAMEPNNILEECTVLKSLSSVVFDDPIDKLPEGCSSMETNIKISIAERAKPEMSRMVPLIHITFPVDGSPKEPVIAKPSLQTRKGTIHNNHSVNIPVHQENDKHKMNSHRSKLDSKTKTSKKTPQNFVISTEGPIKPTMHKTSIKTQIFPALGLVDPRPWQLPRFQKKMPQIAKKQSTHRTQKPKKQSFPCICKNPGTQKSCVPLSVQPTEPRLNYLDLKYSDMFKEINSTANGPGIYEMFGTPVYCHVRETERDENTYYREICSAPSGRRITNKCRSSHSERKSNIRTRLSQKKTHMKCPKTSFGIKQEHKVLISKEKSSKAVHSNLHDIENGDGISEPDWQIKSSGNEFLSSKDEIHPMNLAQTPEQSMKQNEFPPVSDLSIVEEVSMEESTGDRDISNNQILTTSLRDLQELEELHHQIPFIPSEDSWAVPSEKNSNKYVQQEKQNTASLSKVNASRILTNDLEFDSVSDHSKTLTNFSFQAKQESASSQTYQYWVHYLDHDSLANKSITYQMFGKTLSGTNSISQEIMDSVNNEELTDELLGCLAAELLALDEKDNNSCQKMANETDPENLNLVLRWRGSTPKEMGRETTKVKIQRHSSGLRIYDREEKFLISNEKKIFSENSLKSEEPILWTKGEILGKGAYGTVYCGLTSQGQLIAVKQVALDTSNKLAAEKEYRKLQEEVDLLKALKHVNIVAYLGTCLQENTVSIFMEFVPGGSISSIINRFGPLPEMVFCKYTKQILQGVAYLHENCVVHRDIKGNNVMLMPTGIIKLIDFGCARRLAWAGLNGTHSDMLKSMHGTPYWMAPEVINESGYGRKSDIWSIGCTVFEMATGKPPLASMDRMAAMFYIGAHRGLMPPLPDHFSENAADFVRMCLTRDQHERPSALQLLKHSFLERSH

[43] = molecular target: 5-hydroxytryptamine receptor 2B (Homo sapiens) (UniProt P41595); conditions: Compound concentration 10.0 uM
[44] = molecular target: Sodium-dependent dopamine transporter (Homo sapiens, UniProt Q01959); conditions: Compound concentration 10.0 uM
Rattus norvegicus = species: Rattus norvegicus; conditions: Compound concentration 10.0 uM

CC(=O)N1CCC(c2ccc(C(=O)NC3=NCCN3)cc2C(F)(F)F)CC1 [BI 0054]
residual activity [1]: 100% | residual activity [2]: 87% | residual activity [3]: 100% | residual activity [4]: 100% | residual activity [5]: 100% | residual activity [6]: 94% | residual activity [7]: 100% | residual activity [8]: 76% | residual activity [9]: 100% | residual activity [10]: 93% | residual activity [11]: 100% | residual activity [12]: 100% | residual activity [13]: 99% | residual activity [14]: 100% | residual activity [15]: 98% | residual activity [16]: 87% | residual activity [17]: 72% | residual activity [18]: 89% | residual activity [19]: 100% | residual activity [20]: 95% | residual activity [21]: 100% | residual activity [22]: 100% | residual activity [23]: 100% | residual activity [24]: 100% | residual activity [25]: 100% | residual activity [26]: 100% | residual activity [27]: 92% | residual activity [28]: 100% | residual activity [29]: 100% | residual activity [30]: 100% | residual activity [31]: 100% | residual activity [32]: 83% | residual activity [33]: 0.5% | residual activity [34]: 99% | residual activity [35]: 100% | residual activity [36]: 100% | residual activity [37]: 83% | residual activity [38]: 98% | residual activity [39]: 100% | residual activity [40]: 100% | residual activity [41]: 99% | residual activity [42]: 100% | inhibition [43]: -2.75% | inhibition [44]: 87.3% | inhibition (Rattus norvegicus): -2.17%

CC(=O)N1CCC(c2ccc(C(=O)NC(=N)N)cc2C(F)(F)F)CC1 [BI 9627]
residual activity [1]: 100% | residual activity [2]: 100% | residual activity [3]: 86% | residual activity [4]: 100% | residual activity [5]: 87% | residual activity [6]: 100% | residual activity [7]: 100% | residual activity [8]: 92% | residual activity [9]: 100% | residual activity [10]: 92% | residual activity [11]: 100% | residual activity [12]: 100% | residual activity [13]: 100% | residual activity [14]: 93% | residual activity [15]: 89% | residual activity [16]: 97% | residual activity [17]: 82% | residual activity [18]: 100% | residual activity [19]: 100% | residual activity [20]: 100% | residual activity [21]: 100% | residual activity [22]: 100% | residual activity [23]: 100% | residual activity [24]: 100% | residual activity [25]: 84% | residual activity [26]: 100% | residual activity [27]: 100% | residual activity [28]: 100% | residual activity [29]: 100% | residual activity [30]: 100% | residual activity [31]: 100% | residual activity [32]: 100% | residual activity [33]: 87% | residual activity [34]: 100% | residual activity [35]: 100% | residual activity [36]: 100% | residual activity [37]: 100% | residual activity [38]: 100% | residual activity [39]: 100% | residual activity [40]: 100% | residual activity [41]: 100% | residual activity [42]: 100% | inhibition [43]: -8.79% | inhibition [44]: 77.9% | inhibition (Rattus norvegicus): 6.39%

Source: ChEMBL document CHEMBL4507279, “Data for DCP probe BI-9627” (2021)
